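These data come from cells grown in 96-well plates and exposed to compound for 48 hours at five concentrations. GI50: concentration for 50% inhibition of growth. The concentration for full growth arrest is given as TGI.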
Key:
Assay in all cases: NCI anticancer screen, dose series, 48 h
COLO 205 colon = tested on: COLO 205 colon
HCT-15 colon = tested on: HCT-15 colon
KM12 colon = tested on: KM12 colon
MOLT-4 leukemia = tested on: MOLT-4 leukemia
NCI-H460 lung = tested on: NCI-H460 lung
OVCAR-5 ovarian = tested on: OVCAR-5 ovarian
RXF 393 renal = tested on: RXF 393 renal
MDA-MB-231 breast = tested on: MDA-MB-231 breast
NCI/ADR-RES ovarian = tested on: NCI/ADR-RES ovarian
SK-MEL-5 melanoma = tested on: SK-MEL-5 melanoma

SMILES	TGI (COLO 205 colon)	TGI (HCT-15 colon)	TGI (KM12 colon)	TGI (MOLT-4 leukemia)	TGI (NCI-H460 lung)	TGI (OVCAR-5 ovarian)	TGI (RXF 393 renal)	GI50 (KM12 colon)	GI50 (MDA-MB-231 breast)	TGI (MDA-MB-231 breast)	GI50 (NCI-H460 lung)	GI50 (NCI/ADR-RES ovarian)	TGI (NCI/ADR-RES ovarian)	GI50 (OVCAR-5 ovarian)	GI50 (RXF 393 renal)	GI50 (SK-MEL-5 melanoma)	TGI (SK-MEL-5 melanoma)	GI50 (COLO 205 colon)	GI50 (HCT-15 colon)	GI50 (MOLT-4 leukemia)
CCOC(=O)c1cnc2cc3cccccc3n2c1=O	> 100 µM	> 100 µM	> 100 µM	> 100 µM	> 100 µM	> 100 µM	> 100 µM													
COc1cc(OC)cc(-c2cncn2-c2ccc(-c3nc4cc(OC)cc(OC)c4s3)cc2)c1			> 100 µM		> 100 µM	> 100 µM	> 100 µM	4.52 µM	9.01 µM	> 100 µM	4.41 µM	2.58 µM	> 100 µM	> 100 µM	6.58 µM	3.29 µM	> 100 µM			
O=CN1CCN(C=S)CC1	> 100 µM	> 100 µM	> 100 µM	> 100 µM	> 100 µM	> 100 µM	> 100 µM										> 100 µM			
CC1CC2(CCC1OCc1ccccc1)OCCO2 (configuration not stated)	> 100 µM	> 100 µM	> 100 µM	> 100 µM	> 100 µM		> 100 µM										> 100 µM			
Cc1cc2c(cc1Br)C1(C)CCC(C)C1(C)O2 (configuration not stated)	29.8 µM	> 100 µM	> 100 µM	35.6 µM	53.7 µM	> 100 µM	32.1 µM										80.1 µM			
C=CCN(CC=C)CC(C(C)=O)C(c1ccccc1)c1c(O)c2ccccc2oc1=O (configuration not stated)	> 100 µM	> 100 µM	37.9 µM	> 100 µM		> 100 µM	> 100 µM										> 100 µM			
Cc1ccc(Oc2nc3ccccc3cc2-c2nnc(Cn3c(COc4ccccc4)nc4ccccc43)o2)cc1	4.44 µM	7.69 µM	11.8 µM	7.89 µM	24.4 µM		10.6 µM	2.85 µM	1.64 µM	4.62 µM	10.4 µM	2.84 µM	10.9 µM		2.71 µM	1.9 µM	3.97 µM	1.89 µM	2.14 µM	2.18 µM
OCc1ccc(Oc2c3ccccc3nc3occc23)cc1	54.8 µM	47.3 µM	37.8 µM	47.2 µM	68 µM	> 100 µM	23.2 µM	17.8 µM	39.4 µM	> 100 µM	20.8 µM	20.2 µM	49 µM	29.5 µM	4.7 µM			26.1 µM	19.4 µM	21 µM
Cc1c(O)c(=O)ccn1CCO	> 100 µM	> 100 µM	> 100 µM	> 100 µM	> 100 µM	> 100 µM	> 100 µM										> 100 µM			
CN1C(=O)C(c2c[nH]c3ccccc23)=C(c2c(-c3c[nH]c4ccccc34)[nH]c3ccccc23)C1=O	7.89 µM	12.3 µM	7.61 µM		15.8 µM	11.3 µM	6.07 µM	2.13 µM	4.09 µM	26.9 µM	3.31 µM	14.7 µM	42.8 µM	2.85 µM	1.64 µM			2.8 µM	3.24 µM	
NC1=NC(c2ccc(F)cc2)C2=C(N1)c1ccc3ccccc3c1OCC2 (configuration not stated)		> 100 µM	> 100 µM		> 100 µM	> 100 µM	> 100 µM	4.45 µM	47.4 µM	> 100 µM	6.96 µM	43.2 µM	> 100 µM	> 100 µM	18.7 µM	5.01 µM	> 100 µM		3.25 µM	
Clc1cc(Cl)cc(Nc2nc3ccccc3nc2-c2cccs2)c1	32.9 µM	> 100 µM		> 100 µM	41.6 µM	> 100 µM	39.9 µM													
O=[N+]([O-])c1cccc(-c2cc(-c3cc(Br)ccc3O)[nH]n2)c1	5.16 µM	12.9 µM	6 µM	4.68 µM	10.4 µM	14.9 µM		2.13 µM	2.49 µM	9.87 µM	1.9 µM	3.11 µM	8.94 µM	3.81 µM		1.61 µM	3.35 µM	2.23 µM	2.53 µM	1.72 µM
COc1ccc(/C=C\c2cc(OC)c(OC)c(OC)c2)cc1OCC(=O)Nc1nc2ccc(OC(F)(F)F)cc2s1	> 100 µM	> 100 µM	51.5 µM	> 100 µM	> 100 µM	> 100 µM		4.48 µM	5.16 µM	> 100 µM	4.11 µM	2.7 µM	8.62 µM	31.2 µM		3.26 µM	22.9 µM	43.3 µM	3.23 µM	4.21 µM
N/C(=N\c1nc2ccccc2s1)NC(=O)Nc1cccc2ccccc12		> 100 µM		> 100 µM		> 100 µM	0.898 µM		0.636 µM	3.32 µM		0.144 µM	1.34 µM	0.696 µM	0.2 µM	0.505 µM	> 100 µM		0.126 µM	0.472 µM
CO/N=C(/COc1c(-c2ccccc2)oc2ccccc2c1=O)c1ccc(F)cc1	> 100 µM	> 100 µM	> 100 µM			> 100 µM	> 100 µM	> 100 µM	20.5 µM	53.8 µM		86.4 µM	> 100 µM	> 100 µM	76.6 µM	> 100 µM	> 100 µM	> 100 µM	> 100 µM	
COc1ccccc1NC(=O)C1=C(C)NC(C)=C(C(=O)Nc2ccccc2OC)C1c1cccc2c1OCO2	> 100 µM	> 100 µM	> 100 µM	> 100 µM	> 100 µM	> 100 µM											> 100 µM			
NC(=O)c1c2c(cc3c(=O)c4ccccc4[nH]c13)CCCC2	> 100 µM	> 100 µM	> 100 µM	> 80.7 µM	> 100 µM	> 100 µM	> 100 µM										> 100 µM			
CCOC(=O)[C@H]1Nc2ccc(Cl)cc2[C@H]2c3ccccc3O[C@H]21	> 100 µM	> 100 µM	> 100 µM	> 100 µM	> 100 µM	> 100 µM	> 100 µM										> 100 µM			

— PubChem BioAssay (NCI)
